Legend:
[1] = NP-TLC chromatographic lipophilicity parameter (RMW); type: physicochemical; conditions: for RMW range over NP-TLC plates: four chromatographic plates; for RMW: NP-TLC
Method: (§1) The lipophilicity study was performed on chromatographic plates for RP-TLC and NP-TLC analysis purchased from Merck (Darmstadt, Germany): silica gel RP18F254 (aluminum plates, No. 1.05559), silica gel RP2F254 (glass plates, No. 1.05747), and RP18WF254 (glass plates, No. 1.13142) were applied as stationary phases in the reversed-phase system. In the case of the NP-TLC system, aluminum chromatographic plates precoated with silica gel 60F254 without (No. 1.05554) and with a concentrating zone (No. 1.05583), glass plates precoated with silica gel 60CNF254 (No. 1.16464), and aluminum plates coated with the mixture of silica gel 60 and Kieselguhr F254 were tested (No. 1.05567).
The lipophilicity studies of the tested compounds were carried out on chromatographic plates 10 cm × 10 cm developed using mobile phases (50 mL) prepared by mixing the respective amounts of the organic modifier (methanol/acetonitrile/propan-1-ol/acetone) and water. In the case of NP-TLC analysis, the addition of 2.4% glacial acetic acid in the mobile phase methanol-water was used. The organic modifier concentrations (volume fraction, v/v) varied in a range from 0.40 to 0.90 in constant steps of 0.10. […] Chromatography was performed in a classical developing chamber, which was previously saturated with mobile phase vapors for 20 min. The migration distance was 7.0 cm. After the development, the plates were dried at room temperature (20 ± 1 °C) and visualized in UV light (λ = 254 nm) as the maximum wavelength for both biguanides. All analyses were repeated in triplicate. The average value of RF (retardation factor) was determined in every case.
(§2) In this study, the chromatographic lipophilicity parameters of both studied compounds were calculated based on the retardation factor (RF) obtained for metformin and phenformin in each mobile phase and chromatographic plates used as the stationary phase. […]
Then, a linear correlation between the RM of the tested compounds and the volume ratio of the organic solvent in the mobile phase was performed for every chromatographic plate. The extrapolation of calculated RM values to the zero concentration of the organic modifier (i.e., to pure water) in accordance with Soczewiński-Wachtmeister’s Equation (2) allowed determining a valuable chromatographic parameter of lipophilicity expressed as RMW [1]. RM = RMW − S⋅φ(2) where RMW is the chromatographic parameter obtained using Soczewiński–Wachtmeister’s Equation (2), S is the regression slope, and φ is the volume fraction of the organic modifier (e.g., methanol, propan-1-ol, acetonitrile, acetone) in the mobile phase composition. Statistica v. 13.3 software (StatSoft, Kraków, Poland) was used to determine the parameters of these linear relationships.

[2] = RP-TLC chromatographic lipophilicity parameter (RMW); type: physicochemical; conditions: RP2, RP18, RP18W plates; methanol-water, propan-1-ol-water, acetonitrile-water
Method: as §1
The lipophilicity studies of the tested compounds were carried out on chromatographic plates 10 cm × 10 cm developed using mobile phases (50 mL) prepared by mixing the respective amounts of the organic modifier (methanol/acetonitrile/propan-1-ol/acetone) and water. In the case of NP-TLC analysis, the addition of 2.4% glacial acetic acid in the mobile phase methanol-water was used. […] The average value of RF (retardation factor) was determined in every case.
as §2

[3] = n-octanol-water, literature value ref 46; cited from earlier work

| SMILES | RMW range over NP-TLC plates ([1]; acetone-water) | RMW range over NP-TLC plates ([1]; methanol-water-acetic acid) | RMW range over RP-TLC systems [2] | logPow [3] | RMW ([1]; Silica gel 60F254, acetone-water) | RMW ([1]; Silica gel 60F254 with concentrating zone, methanol-water-acetic acid) |
| --- | --- | --- | --- | --- | --- | --- |
| CN(C)C(=N)N=C(N)N [Metformin, dimethylbiguanide] | −4.127 to 1.242 | −6.657 to 0.833 | −4.877 to 0.960 |  |  |  |
| [H]/N=C(/N)N/C(=N/[H])NCCc1ccccc1 [Phenformin] | −4.383–0.790 | −1.983–6.170 | 0.142 to 0.728 | −0.83 | -4.383 | -1.983 |

From article PMC8588420 (Molecules, 2021)
